The values below come from PubChem BioAssay AID179 (DTP/NCI, 2004).

Active and inactive are the calls of the source.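 How the source made its calls: active means compounds giving half or more protection of infected cells from virus-caused growth loss, again on retest; inactive means the rest.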

For the assay, the system named is CEM cells HIV-1 protection, formazan growth assay. Kind of assay: NCI AIDS Antiviral Assay. The note with it: for IC50: measured here: growth of uninfected CEM cells. The method, boiled down:
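Protection of CEM cells against HIV-1 was scored from cell growth (soluble formazan) across five concentrations, with parallel uninfected cells. Lack of protection may reflect toxicity.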

Usually EC50 stands for the concentration needed to bring the measured effect to its halfway point. For orientation: IC50 means the midpoint of a concentration-inhibition curve. Turning to `O=C(/C=C/c1ccc(O)c(O)c1)OCCOC(=O)/C=C/c1ccc(O)c(O)c1`, the EC50 is above 200 µM and the 50% inhibitory concentration (IC50) amounted to 10 µM.
For `S=C1SCCS1`, the EC50 was above 200 µM and the IC50 is above 200 µM.
With `O=C(Nc1cccc2ccccc12)N1CCCC(Br)C1` (configuration not stated), the EC50 was above 200 µM and the IC50 is 195 µM.
`CCOC(=O)C(/C=N/C(=S)Nc1ccc(S(=O)(=O)Nc2ccccn2)cc1)=C(/O)c1ccccc1`: the EC50 is above 200 µM and the IC50 worked out at 135 µM.
For `CCOC(=O)c1cnc2c(ccc3ncccc32)c1Cl`, in that order: above 66.1 µM and 34.7 µM.
On the same counts, the results for `CC(=O)Oc1ccc2cc(Oc3ccc(Cl)cc3)c(=O)oc2c1` are above 200 µM and 83.2 µM.
Regarding `CC(=O)Nc1ccccc1-c1ccccc1NC(C)=O`, the outcome was inactive.
In the case of `COC(=O)C(CCCCCCCC(C(=O)OC)c1nc2n(c1O)C(=N)N=N2)c1nc2n(c1O)C(=N)N=N2` (configuration not stated), the EC50 was above 7.41 µM and the 50% inhibitory concentration (IC50) was above 7.41 µM.
Take `CC#CC(O)(C(=O)OC1CC2CCC(C1)N2C)C1CCCC1` (configuration not stated): the EC50 is above 200 µM and the half-inhibitory concentration (IC50) was above 200 µM.
In the case of `CCN(CC)CCCNc1ccc([N+](=O)[O-])c2nc3ccc(OC)cc3c(NCCCN(CC)CC)c12`, the EC50 was above 50.1 µM and the IC50 turned out to be 0.234 µM.
On the same counts, the results for `Nc1ccn(C2CC3OCC3O2)c(=O)n1` (configuration not stated) are above 200 µM and above 200 µM.
As to `CSc1nc(NC2OCC(O)C(O)C2O)cc(=O)[nH]1` (configuration not stated), the outcome was inactive.
On to `C1=Nc2ccccc2Cn2nncc21`, for which the EC50 was above 1350 µM and the IC50 was 21.9 µM.
For `CCn1c(=O)[nH]c(=O)c2conc21`, in that order: above 1380 µM and 661 µM.
For `Oc1ccc2cc(SSc3ccc4cc(O)ccc4c3)ccc2c1`, in that order: above 200 µM and 8.13 µM.
Regarding `FC1C2=C(SC1(F)F)C1CCC2C1` (configuration not stated), the EC50 is above 200 µM and the IC50 is above 200 µM.
On to `O=C(CC1(O)C(=O)Nc2ccc([N+](=O)[O-])cc21)c1ccncc1` (configuration not stated), for which the EC50 was above 20.9 µM and the IC50 is above 20.9 µM.
Take `COC(=O)C1=C2Nc3ccccc3C23CCN2C(=O)C[C@H](C1)[C@@H]23` (some centres not stated): the outcome was inactive.
Consider `CC(C)C(=Nc1ccc(Cl)c(Cl)c1)N(C)C`, for which the EC50 is above 200 µM and the concentration for half-maximal inhibition (IC50) was above 100 µM.
`CCCCC[C@@H]1CCCC2N=C(CCCCC3OCCO3)CCC21` (some centres not stated): the outcome was inactive.
Turning to `Cn1cnc([N+](=O)[O-])c1Sc1nc(N)nc2nc[nH]c12`, the EC50 was above 200 µM and the IC50 worked out at 3.39 µM.
In the case of `c1ccc2c(c1)n1c(N3CCCC3)[n+]3ccccc3c1c1c3cccc[n+]3c(N3CCCC3)n21`, the EC50 was 57.5 µM and the IC50 was above 100 µM.
On the same counts, the results for `COc1ccc2c(c1)CCC1=C2CCC(=O)C1C` (configuration not stated) (tested in a mixture with another compound) are above 200 µM and 7.94 µM.
As for `O=C(O)CSCC(=O)Nc1ccc2cccc3c2c1CC3`, the result was inactive.
Take `Cc1nc(C)c(C(=O)NNC(=O)c2ccccc2)cc1C(=O)NNC(=O)c1ccccc1`: the EC50 is above 200 µM and the IC50 is above 200 µM.
Turning to `CC(=O)N1C(=N)SCC1C(N)=O` (configuration not stated), the EC50 is 427 µM and the IC50 stood at 479 µM.
Turning to `NS(=O)(=O)c1ccc(NC(=S)/N=C/C2=C(O)c3ccccc3C2=O)cc1`, the EC50 is above 200 µM and the IC50 came to 52.5 µM.
As for `O=S(=O)(O)c1cc[c]([Sb](=[O])([OH])[OH])cc1`, the EC50 was 0.661 µM and the IC50 is 398 µM.
On the same counts, the results for `COC(=O)C1=C(C(=O)OC)P2(C)(C)OC(c3ccccc3)CN2C1(c1ccccc1)c1ccccc1` (configuration not stated) are above 36.3 µM and 4.79 µM.
On the same counts, the results for `CCOC(=O)C1(C(C)C)OC2CCCCCN2C1=O` (configuration not stated) are above 589 µM and above 589 µM.
As to `C[n+]1cc2c3c(ccc2c2ccc4cc5c(cc4c21)OCO5)OCO3`, the EC50 was above 1.58 µM and the IC50 worked out at 0.288 µM.
